Data from ChEMBL document CHEMBL4002583, “Amino derivatives of platanic acid act as selective and potent inhibitors of butyrylcholinesterase” (Eur J Med Chem, 2017).

Tests used:
[1] = target: T1, Acetylcholinesterase (Electrophorus electricus, UniProt O42275); assay: Competitive inhibition of electric eel AChE using acetylthiocholine iodide as substrate preincubated for 20 mins followed by substrate addition measured every 1 min for 30 mins by Dixon plot method
[2] = target: T1, Acetylcholinesterase; assay: Uncompetitive inhibition of electric eel AChE using acetylthiocholine iodide as substrate preincubated for 20 mins followed by substrate addition measured every 1 min for 30 mins by Cornish-Bowden plot method
[3] = target: T2, Cholinesterase (Equus caballus, UniProt P81908); assay: Competitive inhibition of equine serum BChE using butyrylthiocholine iodide as substrate preincubated for 20 mins followed by substrate addition measured every 1 min for 30 mins by Dixon plot method
[4] = target: T2, Cholinesterase; assay: Uncompetitive inhibition of equine serum BChE using butyrylthiocholine iodide as substrate preincubated for 20 mins followed by substrate addition measured every 1 min for 30 mins by Cornish-Bowden plot method
[5] = Selectivity ratio of Ki for equine serum BChE to Ki for electric eel AChE
[6] = Selectivity ratio of Ki for electric eel AChE to Ki for equine serum BChE
[7] = Chemical stability in TRIS buffer at pH 8 measured over 2880 mins by HPLC method; format: physicochemical; settings: pH 8, 48 h
[8] = Chemical stability in TRIS buffer at pH 8 measured over 2880 mins in presence of BChE by HPLC method; format: physicochemical; settings: pH 8, 48 h
[9] = target: Acetylcholinesterase (Homo sapiens, UniProt P22303); assay: Inhibition of […] using acetyl-(beta-methyl)thiocholine as substrate preincubated for 30 mins followed by substrate addition measured after 25 mins by spectrophotometric method
[10] = target: T3, Cholinesterase (Homo sapiens, UniProt P06276); assay: Inhibition of […] using S-butyrylthiocholine as substrate preincubated for 30 mins followed by substrate addition measured after 25 mins by spectrophotometric method
[11] = target: T3, Cholinesterase; assay: Inhibition of human serum BChE using butyrylthiocholine iodide as substrate by Ellman's method

T1 sequence (O42275 whole entry): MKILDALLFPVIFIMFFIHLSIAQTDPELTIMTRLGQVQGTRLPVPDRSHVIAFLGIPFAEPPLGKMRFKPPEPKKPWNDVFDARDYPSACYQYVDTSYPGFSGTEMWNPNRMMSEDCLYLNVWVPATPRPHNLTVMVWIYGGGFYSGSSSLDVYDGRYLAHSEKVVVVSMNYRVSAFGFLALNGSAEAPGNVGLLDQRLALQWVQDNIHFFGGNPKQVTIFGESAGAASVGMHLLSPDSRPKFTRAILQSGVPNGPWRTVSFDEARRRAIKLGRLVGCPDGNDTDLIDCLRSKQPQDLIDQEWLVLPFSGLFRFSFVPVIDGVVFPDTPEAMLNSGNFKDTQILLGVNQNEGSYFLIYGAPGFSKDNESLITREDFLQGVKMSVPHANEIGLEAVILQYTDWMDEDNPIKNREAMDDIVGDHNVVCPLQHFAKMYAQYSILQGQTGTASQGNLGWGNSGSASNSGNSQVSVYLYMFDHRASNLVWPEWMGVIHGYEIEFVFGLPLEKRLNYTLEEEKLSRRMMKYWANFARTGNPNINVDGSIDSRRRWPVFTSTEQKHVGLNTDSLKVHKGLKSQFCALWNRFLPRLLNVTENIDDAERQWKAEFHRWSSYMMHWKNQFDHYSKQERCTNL
T2 sequence (P81908 whole entry): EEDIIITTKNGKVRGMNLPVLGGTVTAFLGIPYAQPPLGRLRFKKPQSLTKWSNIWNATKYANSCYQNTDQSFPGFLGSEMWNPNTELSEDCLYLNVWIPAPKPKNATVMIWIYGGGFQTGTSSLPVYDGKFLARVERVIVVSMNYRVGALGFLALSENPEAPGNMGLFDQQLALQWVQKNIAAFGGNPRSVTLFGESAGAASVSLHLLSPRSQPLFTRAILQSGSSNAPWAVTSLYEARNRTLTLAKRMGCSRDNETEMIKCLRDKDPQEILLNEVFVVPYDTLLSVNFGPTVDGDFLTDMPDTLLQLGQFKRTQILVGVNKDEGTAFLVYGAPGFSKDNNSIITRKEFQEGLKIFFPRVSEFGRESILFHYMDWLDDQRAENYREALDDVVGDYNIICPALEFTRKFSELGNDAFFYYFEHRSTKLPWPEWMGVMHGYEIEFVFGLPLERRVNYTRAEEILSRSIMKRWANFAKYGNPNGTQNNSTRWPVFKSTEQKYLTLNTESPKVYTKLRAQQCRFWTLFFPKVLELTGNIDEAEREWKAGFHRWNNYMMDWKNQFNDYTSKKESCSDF
T3 sequence (P06276 whole entry): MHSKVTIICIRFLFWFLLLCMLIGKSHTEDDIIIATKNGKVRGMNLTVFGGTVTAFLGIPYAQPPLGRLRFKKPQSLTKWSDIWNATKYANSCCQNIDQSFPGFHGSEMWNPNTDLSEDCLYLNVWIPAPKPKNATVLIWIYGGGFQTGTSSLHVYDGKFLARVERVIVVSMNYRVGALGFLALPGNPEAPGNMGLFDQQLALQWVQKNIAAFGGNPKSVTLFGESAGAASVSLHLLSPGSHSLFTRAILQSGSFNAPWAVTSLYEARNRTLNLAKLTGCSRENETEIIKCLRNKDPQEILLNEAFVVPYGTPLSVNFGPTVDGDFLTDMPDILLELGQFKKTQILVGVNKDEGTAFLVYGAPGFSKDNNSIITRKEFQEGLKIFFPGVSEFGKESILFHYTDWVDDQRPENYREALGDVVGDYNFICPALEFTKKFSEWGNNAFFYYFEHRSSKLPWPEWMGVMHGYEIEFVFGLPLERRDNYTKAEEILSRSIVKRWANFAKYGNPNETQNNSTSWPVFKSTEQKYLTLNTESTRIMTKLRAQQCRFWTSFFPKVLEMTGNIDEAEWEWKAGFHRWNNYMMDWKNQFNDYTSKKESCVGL
Chain of Acetylcholinesterase (Homo sapiens, UniProt P22303) (P22303 whole entry): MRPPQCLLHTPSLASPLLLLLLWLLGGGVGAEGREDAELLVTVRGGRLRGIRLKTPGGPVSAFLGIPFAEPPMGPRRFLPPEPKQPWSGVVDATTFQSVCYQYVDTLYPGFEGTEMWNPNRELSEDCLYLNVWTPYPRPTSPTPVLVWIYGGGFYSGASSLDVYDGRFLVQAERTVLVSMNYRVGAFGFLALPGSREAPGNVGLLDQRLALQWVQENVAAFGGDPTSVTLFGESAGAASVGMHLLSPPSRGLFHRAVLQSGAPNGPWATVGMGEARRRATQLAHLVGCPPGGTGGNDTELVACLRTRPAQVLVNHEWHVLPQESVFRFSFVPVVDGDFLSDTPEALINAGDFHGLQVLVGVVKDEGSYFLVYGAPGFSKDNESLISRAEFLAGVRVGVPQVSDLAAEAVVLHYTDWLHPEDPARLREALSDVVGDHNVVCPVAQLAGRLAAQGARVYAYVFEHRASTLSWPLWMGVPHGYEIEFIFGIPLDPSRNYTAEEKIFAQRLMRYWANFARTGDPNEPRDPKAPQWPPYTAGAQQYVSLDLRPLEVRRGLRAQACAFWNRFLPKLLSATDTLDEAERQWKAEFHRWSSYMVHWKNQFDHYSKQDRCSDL

CC(=O)[C@@H]1CC[C@]2(C(=O)NCCN)CC[C@]3(C)[C@H](CC[C@@H]4[C@@]5(C)CC[C@H](O)C(C)(C)[C@@H]5CC[C@]43C)[C@@H]12
Ki [1]: 7.18 µM
Ki [2]: 9.71 µM
Ki [3]: 8.37 µM
Ki [4]: > 110 µM
Ratio Ki [5]: 1.2

COC(=O)[C@]12CC[C@@H]([C@H](C)NC(C)=O)[C@@H]1[C@H]1CC[C@@H]3[C@@]4(C)CC[C@H](OC(C)=O)C(C)(C)[C@@H]4CC[C@@]3(C)[C@]1(C)CC2
Ki [1]: 11.8 µM
Ki [2]: 45.6 µM
Ki [3]: > 40 µM
Ratio Ki [5]: > 3.4

CC(=O)OC[C@]12CC[C@@H]([C@@H](C)N)[C@@H]1[C@H]1CC[C@@H]3[C@@]4(C)CC[C@H](OC(C)=O)C(C)(C)[C@@H]4CC[C@@]3(C)[C@]1(C)CC2
Ki [1]: 4.5 µM
Ki [3]: 0.06 µM
Ki [4]: 0.37 µM
Ratio Ki [6]: 75

C[C@@H](N)[C@@H]1CC[C@]2(C(=O)OCc3ccccc3)CC[C@]3(C)[C@H](CC[C@@H]4[C@@]5(C)CC[C@H](O)C(C)(C)[C@@H]5CC[C@]43C)[C@@H]12
Ki [1]: 11 µM
Ki [2]: 47.8 µM
Ki [3]: 0.07 µM
Ki [4]: 0.19 µM
Ratio Ki [6]: 157
Stability [7]: Stable
Stability [8]: Stable

CC(=O)[C@@H]1CC[C@]2(C(=O)OCc3ccccc3)CC[C@]3(C)[C@H](CC[C@@H]4[C@@]5(C)CC[C@H](N)C(C)(C)[C@@H]5CC[C@]43C)[C@@H]12
Ki [1]: 13.4 µM
Ki [2]: 76.6 µM
Ki [3]: 0.56 µM
Ki [4]: 3.5 µM
Ratio Ki [6]: 24

CC(=O)O[C@H]1CC[C@]2(C)[C@H]3CC[C@@H]4[C@H]5[C@H]([C@@H](C)N)CC[C@]5(C(=O)OCc5ccccc5)CC[C@@]4(C)[C@]3(C)CC[C@H]2C1(C)C
Ki [1]: 8.51 µM
Ki [2]: 17 µM
Ki [3]: 0.01 µM
Ki [4]: 0.4 µM
Ratio Ki [6]: 851

COC(=O)[C@]12CC[C@@H](/C(C)=N/OC(C)=O)[C@@H]1[C@H]1CC[C@@H]3[C@@]4(C)CC[C@H](OC(C)=O)C(C)(C)[C@@H]4CC[C@@]3(C)[C@]1(C)CC2
Ki [1]: > 15 µM
Ki [3]: > 15 µM

CC(=O)O[C@H]1CC[C@]2(C)[C@H]3CC[C@@H]4[C@H]5[C@H](C(C)=O)CC[C@]5(C(=O)OCc5ccccc5)CC[C@@]4(C)[C@]3(C)CC[C@H]2C1(C)C
Ki [1]: 0.09 µM
Ki [2]: 0.21 µM
Ki [3]: 33.1 µM
Ki [4]: > 400 µM
Ratio Ki [5]: 368

CC(=O)[C@@H]1CC[C@]2(N)CC[C@]3(C)[C@H](CC[C@@H]4[C@@]5(C)CC[C@H](O)C(C)(C)[C@@H]5CC[C@]43C)[C@@H]12
Ki [1]: 20.9 µM
Ki [2]: > 120 µM
Ki [3]: 6.39 µM
Ki [4]: 38.9 µM
Ratio Ki [6]: 3.3

CC(=O)O[C@H]1CC[C@]2(C)[C@H]3CC[C@@H]4[C@H]5[C@H](C(C)=O)CC[C@]5(C(=O)NCCN)CC[C@@]4(C)[C@]3(C)CC[C@H]2C1(C)C
Ki [1]: 3.06 µM
Ki [2]: 6.83 µM
Ki [3]: 11.9 µM
Ki [4]: 17.1 µM
Ratio Ki [5]: 3.9

COC(=O)[C@]12CC[C@@H]([C@@H](C)N)[C@@H]1[C@H]1CC[C@@H]3[C@@]4(C)CC[C@H](OC(C)=O)C(C)(C)[C@@H]4CC[C@@]3(C)[C@]1(C)CC2
Ki [1]: > 4 µM
Ki [3]: 0.09 µM
Ki [4]: 0.05 µM
Ratio Ki [6]: > 44

CC(=O)O[C@H]1CC[C@]2(C)[C@H]3CC[C@@H]4[C@H]5[C@H](/C(C)=N/O)CC[C@]5(C(=O)O)CC[C@@]4(C)[C@]3(C)CC[C@H]2C1(C)C
Stability [7]: Stable
Stability [8]: Stable

CC(=O)[C@@H]1CC[C@]2(C(=O)OCc3ccccc3)CC[C@]3(C)[C@H](CC[C@@H]4[C@@]5(C)CCC(=O)C(C)(C)[C@@H]5CC[C@]43C)[C@@H]12
Ki [1]: 2.63 µM
Ki [2]: 4.59 µM
Ki [3]: > 10 µM
Ratio Ki [5]: > 3.8

CC(=O)[C@@H]1CC[C@]2(C(=O)OCc3ccccc3)CC[C@]3(C)[C@H](CC[C@@H]4[C@@]5(C)CC[C@H](O)C(C)(C)[C@@H]5CC[C@]43C)[C@@H]12
Ki [1]: 0.59 µM
Ki [2]: 4.06 µM
Ki [3]: > 10 µM
Ratio Ki [5]: > 17

CC(=O)[C@@H]1CC[C@]2(C(=O)O)CC[C@]3(C)[C@H](CC[C@@H]4[C@@]5(C)CC[C@H](O)C(C)(C)[C@@H]5CC[C@]43C)[C@@H]12 [PLATANIC ACID]
Ki [1]: 31.6 µM
Ki [2]: 36.9 µM
Ki [3]: > 50 µM
Ratio Ki [5]: > 1.6

COC(=O)[C@]12CC[C@@H]([C@@H](C)NC(C)=O)[C@@H]1[C@H]1CC[C@@H]3[C@@]4(C)CC[C@H](OC(C)=O)C(C)(C)[C@@H]4CC[C@@]3(C)[C@]1(C)CC2
Ki [1]: > 4 µM
Ki [3]: > 4 µM

COC(=O)[C@]12CC[C@@H](C(C)=O)[C@@H]1[C@H]1CC[C@@H]3[C@@]4(C)CC[C@H](O)C(C)(C)[C@@H]4CC[C@@]3(C)[C@]1(C)CC2
Ki [1]: 0.76 µM
Ki [3]: > 4 µM
Ratio Ki [5]: > 5

COC(=O)[C@]12CC[C@@H](NC(C)=O)[C@@H]1[C@H]1CC[C@@H]3[C@@]4(C)CC[C@H](OC(C)=O)C(C)(C)[C@@H]4CC[C@@]3(C)[C@]1(C)CC2
Ki [1]: 14.1 µM
Ki [3]: > 20 µM
Ratio Ki [5]: > 1.4

CC(=O)O[C@H]1CC[C@]2(C)[C@H]3CC[C@@H]4[C@H]5[C@H](C(C)=O)CC[C@]5(C(N)=O)CC[C@@]4(C)[C@]3(C)CC[C@H]2C1(C)C
Ki [1]: 8.16 µM
Ki [2]: 10.9 µM
Ki [3]: > 10 µM
Ratio Ki [5]: > 1.2

CC(=O)O[C@H]1CC[C@]2(C)[C@H]3CC[C@@H]4[C@H]5[C@H]([C@@H](C)N)CC[C@]5(C(=O)O)CC[C@@]4(C)[C@]3(C)CC[C@H]2C1(C)C
Ki [1]: 20.9 µM
Ki [3]: 0.1 µM
Ki [4]: 2.75 µM
Ratio Ki [6]: 209

CCC(=O)O/N=C(\C)[C@@H]1CC[C@]2(C(=O)OC)CC[C@]3(C)[C@H](CC[C@@H]4[C@@]5(C)CC[C@H](OC(C)=O)C(C)(C)[C@@H]5CC[C@]43C)[C@@H]12
Ki [1]: > 30 µM
Ki [3]: > 30 µM

CC(=O)[C@@H]1CC[C@]2(C(=O)OCc3ccccc3)CC[C@]3(C)[C@H](CC[C@@H]4[C@@]5(C)CC[C@@H](N)C(C)(C)[C@@H]5CC[C@]43C)[C@@H]12
Ki [1]: 20.3 µM
Ki [2]: > 90 µM
Ki [3]: 1.8 µM
Ki [4]: 5.98 µM
Ratio Ki [6]: 11

CC(=O)O[C@H]1CC[C@]2(C)[C@H]3CC[C@@H]4[C@H]5[C@H]([C@H](C)N)CC[C@]5(C(=O)OCc5ccccc5)CC[C@@]4(C)[C@]3(C)CC[C@H]2C1(C)C
Ki [1]: 10.7 µM
Ki [2]: 34.2 µM
Ki [3]: 0.38 µM
Ki [4]: 6.78 µM
Ratio Ki [6]: 28

CC(=O)O[C@H]1CC[C@]2(C)[C@H]3CC[C@@H]4[C@H]5[C@H](C(C)=O)CC[C@]5(C(=O)O)CC[C@@]4(C)[C@]3(C)CC[C@H]2C1(C)C
Ki [1]: 9 µM
Ki [3]: > 10 µM
Ratio Ki [5]: > 1.1

C[C@@H](N)[C@@H]1CC[C@]2(CO)CC[C@]3(C)[C@H](CC[C@@H]4[C@@]5(C)CC[C@H](O)C(C)(C)[C@@H]5CC[C@]43C)[C@@H]12
Ki [1]: 53.1 µM
Ki [2]: 104 µM
Ki [3]: 0.14 µM
Ki [4]: 1.89 µM
Ratio Ki [6]: 378

COC(=O)[C@]12CC[C@@H]([C@H](C)N)[C@@H]1[C@H]1CC[C@@H]3[C@@]4(C)CC[C@H](OC(C)=O)C(C)(C)[C@@H]4CC[C@@]3(C)[C@]1(C)CC2
Ki [1]: > 40 µM
Ki [2]: > 80 µM
Ki [3]: 0.23 µM
Ki [4]: 3.89 µM
Ratio Ki [6]: > 173

CC(C)c1ccc(NC(=O)Oc2ccc3c(c2)[C@]2(C)CCN[C@@H]2N3)cc1
IC50 [9]: 0.11 µM
IC50 [10]: 0.001 µM
Ki [11]: 0.000131 µM
